This note sets out measurements from patent publication US12630498B2 (Genzyme Corporation, priority 2019, dated 2026).

In test [1] the target is T1, CFTR-mediated transepithelial chloride transport in primary human bronchial epithelial cells from a ΔF508 homozygous CF donor (Homo sapiens, UniProt P13569, DEL508-508).
T1 construct: Primary human bronchial epithelial cells from a ΔF508 homozygous CF donor; host or cells: primary CF-HBE cells, ΔF508 homozygous donor
In words: TECC24 recording of CFTR-mediated transepithelial chloride transport in CF-HBE cells (AUC fold over DMSO). It counts as cell-based. The following applies: test agent 10 μM, 48 hours incubation, AUC of forskolin-stimulated IEQ relative to DMSO. How it is done: Example 316: TECC24 AUC Fold Over DMSO @ 10 uM
The effects of a test agent on CFTR-mediated transepithelial chloride transport was measured using TECC24 recording analysis. Test agents were solubilized in DMSO. Solubilized test agents were mixed with incubation medium containing DMEM/F12, Ultroser G (2%; Crescent Chemical, catalog #67042), Hyclone Fetal Clone II (2%; GE Healthcare, catalog #SH30066.02), bovine brain extract (0.25%; Lonza, catalog #CC-4098), insulin (2.5 μg/mL), IL-13 (10 ng/mL), hydrocortisone (20 nM), transferrin (2.5 μg/mL), triiodothyronine (500 nM), ethanolamine (250 nM), epinephrine (1.5 μM), phosphoethanolamine (250 nM), and retinoic acid (10 nM). Primary human bronchial epithelial cells from a ΔF508 homozygous CF donor (CF-HBE cells; from University of North Carolina Cystic Fibrosis Tissue Procurement Center), grown on Transwell HTS 24-well cell culture inserts (Costar, catalog #3378), were exposed to test agents or controls dissolved in incubation medium. The CF-HBE cells were cultured at 36.5° C. for 48 hours before TECC24 recordings were performed in the presence or absence of test agent, a positive control or vehicle (DMSO).
Following incubation, the transwell cell culture inserts containing the test agent or control-treated CF-HBE cells were loaded onto a TECC24 apparatus (TECC v7 or MTECC v2; EP Design) to record the transepithelial voltage (VT) and resistance (TEER) using 4 AgCl electrodes per well configured in current-clamp mode. The apical and basolateral bath solutions both contained (in mM) 140 NaCl, 5 KCl, 2 CaCl2), 1 MgCl2, 10 Hepes, and 10 glucose (adjusted to pH 7.4 with NaOH). To inhibit basal Na+ absorption, the ENaC inhibitor benzamil (10 μM) was added to the bath. Then, the adenylate cyclase activator, forskolin (10 μM), was added to the bath to activate CFTR. The forskolin-stimulated Cl-transport was halted by addition of CFTR inhibitor-172 (20 μM) to the bath at the end of the experiment to confirm specificity. VT and TEER recordings were digitally acquired at routine intervals using TECC or MTECC software (EP Design). VT and TEER were transformed into equivalent transepithelial Cl-current (IEQ), and the Area Under the Curve (AUC) of the IEQ time course between forskolin and CFTR inhibitor-172 addition was generated using Excel (Microsoft). Efficacy is expressed as the ratio of the test agent AUC divided by vehicle AUC. EC50s based on AUC are generated using the non-linear regression log(agonist) vs. response function in Prism software (GraphPad) with Hill Slope fixed=1.
If a test agent increased the AUC of the forskolin-stimulated IEQ relative to vehicle in CF-HBE cells, and this increase was inhibited by CFTR inhibitor-172, then the test agent was considered a CFTR corrector.

Test [2] deals with T2, human Cystic Fibrosis Transmembrane Conductance Regulator (CFTR) harboring the ΔF508 mutation (Homo sapiens, UniProt P13569, DEL508-508).
T2 construct: expressed in transfected cells; host or cells: H441 carcinoma line (G418-selected)
In words: H441 cell ΔF508-CFTR-HRP cell surface assay (Emax and EC50). It counts as cell-based. As to conditions: for Emax: NCI-H441, NA = Not active. In a few lines:
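H441 and 41o- bronchial epithelial cells expressing ΔF508-CFTR with an extracellular-loop-4 HRP tag were treated with a 15-point compound series (24.5–0.001 μM) for two nights, H441 at 27° C, 41o- at 37° C with 0.0005 mg/ml doxycycline. Surface HRP luminescence read; % of maximum VX809 signal and EC50 derived.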

Each structure is given as a SMILES string.

T1 sequence (P13569 with tags, fused parts or gaps DEL508-508): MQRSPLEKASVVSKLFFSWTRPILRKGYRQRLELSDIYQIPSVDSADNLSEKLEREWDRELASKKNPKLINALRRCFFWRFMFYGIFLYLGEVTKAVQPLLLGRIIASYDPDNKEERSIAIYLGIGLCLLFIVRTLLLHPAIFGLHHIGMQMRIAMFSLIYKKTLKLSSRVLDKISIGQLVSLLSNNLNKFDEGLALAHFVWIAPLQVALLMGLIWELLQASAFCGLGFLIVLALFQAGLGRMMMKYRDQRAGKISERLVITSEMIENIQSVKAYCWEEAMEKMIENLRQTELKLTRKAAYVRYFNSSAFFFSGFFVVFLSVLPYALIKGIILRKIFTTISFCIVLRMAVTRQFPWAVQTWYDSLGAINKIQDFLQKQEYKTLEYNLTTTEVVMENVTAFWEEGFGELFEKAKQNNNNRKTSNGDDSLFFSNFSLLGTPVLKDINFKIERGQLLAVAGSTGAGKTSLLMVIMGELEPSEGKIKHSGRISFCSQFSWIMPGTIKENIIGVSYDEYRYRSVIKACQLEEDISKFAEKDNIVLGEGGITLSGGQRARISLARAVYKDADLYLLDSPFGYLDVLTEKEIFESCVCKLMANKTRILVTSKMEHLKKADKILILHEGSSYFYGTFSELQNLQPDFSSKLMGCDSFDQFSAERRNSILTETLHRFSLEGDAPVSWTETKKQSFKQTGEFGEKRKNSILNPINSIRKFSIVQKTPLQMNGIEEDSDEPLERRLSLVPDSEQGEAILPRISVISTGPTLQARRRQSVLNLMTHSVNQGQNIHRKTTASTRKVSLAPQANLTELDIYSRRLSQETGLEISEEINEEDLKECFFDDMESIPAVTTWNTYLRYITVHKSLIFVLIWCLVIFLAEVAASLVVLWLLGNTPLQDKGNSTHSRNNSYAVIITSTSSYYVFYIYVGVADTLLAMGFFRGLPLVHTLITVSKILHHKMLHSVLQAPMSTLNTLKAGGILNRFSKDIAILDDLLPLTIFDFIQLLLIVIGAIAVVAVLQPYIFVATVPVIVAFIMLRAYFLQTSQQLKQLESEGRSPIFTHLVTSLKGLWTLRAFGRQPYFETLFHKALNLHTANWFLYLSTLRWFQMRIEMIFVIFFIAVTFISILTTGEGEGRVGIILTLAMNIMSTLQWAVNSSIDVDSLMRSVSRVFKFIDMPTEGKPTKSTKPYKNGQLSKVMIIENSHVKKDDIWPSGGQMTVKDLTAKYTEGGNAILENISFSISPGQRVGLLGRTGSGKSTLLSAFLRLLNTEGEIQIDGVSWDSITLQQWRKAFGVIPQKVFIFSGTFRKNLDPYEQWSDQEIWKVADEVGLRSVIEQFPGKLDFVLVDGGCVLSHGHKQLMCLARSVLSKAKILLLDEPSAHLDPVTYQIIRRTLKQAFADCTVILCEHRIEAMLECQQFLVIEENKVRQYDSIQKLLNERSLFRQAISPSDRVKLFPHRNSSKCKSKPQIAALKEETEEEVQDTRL
T2 sequence (P13569 with tags, fused parts or gaps DEL508-508): as above

With `CC(OCc1ccccc1)[C@H](NC(=O)c1ccc2ccccc2c1OCc1ccc(OC(F)(F)F)cc1)C(=O)O` (stereo in doubt) [Example 188, O-benzyl-N-(1-((4-(trifluoromethoxy)benzyl)oxy)-2-naphthoyl)-L-allothreonine], the “TECC24 AUC fold over DMSO @10 μM” value in test [1] is reported as “C (“C” refers to AUC @10 uM <4)”.

Take `C[C@@H](OCc1ccccc1)[C@H](NC(=O)c1ccc2cc(F)ccc2c1OCC1CCCCC1)C(=O)O` (stereo in doubt) [Example 202]: in test [2], the half-maximal effective concentration (EC50) is 4.1 µM and the maximal effect (Emax) worked out at 112%. The “TECC24 AUC fold over DMSO @10 μM” value in test [1] is “C (“C” refers to AUC @10 uM <4)”.

Consider `C[C@@H](OCc1ccccc1)[C@H](NC(=O)c1ccc2ccccc2c1OCc1ccc(Cl)c(Cl)c1)C(=O)O` (stereo in doubt) [Example 206], for which, in test [2], the maximal effect (Emax) worked out at 4.7%. Besides, the “TECC24 AUC fold over DMSO @10 μM” value in test [1] is on record as “C (“C” refers to AUC @10 uM <4)”.

On to `CC(OCc1ccccc1)[C@H](NC(=O)c1ccc2cc(F)ccc2c1OCc1ccc(Cl)c(Cl)c1)C(=O)O` (stereo in doubt) [Example 208, O-benzyl-N-(1-((3,4-dichlorobenzyl)oxy)-6-fluoro-2-naphthoyl)-L-allothreonine], for which, in test [2], the 50% effective concentration (EC50) came to 1.5 µM and the maximum response (Emax) is 154%. In addition, the “TECC24 AUC fold over DMSO @10 μM” value in test [1] is “C (“C” refers to AUC @10 uM <4)”.

As for `CC1(C(NC(=O)c2ccc3ccccc3c2OCc2ccc(OC(F)(F)F)cc2)C(=O)O)CCCCC1` (stereo not shown) [Example 1, 2-(1-methylcyclohexyl)-2-[[1-[[4-(trifluoromethoxy)phenyl]methoxy]naphthalene-2-carbonyl]amino]acetic Acid], in test [2], the EC50 stood at 0.7 µM and the Emax worked out at 164%. The “TECC24 AUC fold over DMSO @10 μM” value in test [1] is “B (“B” refers to AUC @10 uM between 4-6)”.

As for `CC(C)(c1ccccc1)[C@H](NC(=O)c1ccc2ccccc2c1OCc1ccc(SC(F)(F)F)cc1)C(=O)O` [Example 5, (S)-3-methyl-3-phenyl-2-(1-((4-((trifluoromethyl)thio)benzyl)oxy)-2-naphthamido)butanoic Acid], in test [2], a half-maximal response (EC50) required 0.8 µM and the Emax is 100%. The “TECC24 AUC fold over DMSO @10 μM” value in test [1] is reported as “C (“C” refers to AUC @10 uM <4)”.

For the compound `CC(C)(c1ccccc1)[C@H](NC(=O)c1ccc2ccccc2c1OCc1ccc(C(F)(F)F)cc1)C(=O)O` [Example 9, (S)-3-methyl-3-phenyl-2-(1-((4-(trifluoromethyl)benzyl)oxy)-2-naphthamido)butanoic Acid], in test [2], the EC50 is 1.1 µM and the maximal effect (Emax) is 88.4%. Besides, the “TECC24 AUC fold over DMSO @10 μM” value in test [1] is listed as “C (“C” refers to AUC @10 uM <4)”.

Take `CC(C)(c1ccccc1)[C@H](NC(=O)c1ccc2cc(F)ccc2c1OCc1ccc(SC(F)(F)F)cc1)C(=O)O` [Example 10, (S)-2-(6-fluoro-1-((4-((trifluoromethyl)thio)benzyl)oxy)-2-naphthamido)-3-methyl-3-phenylbutanoic Acid]: the “TECC24 AUC fold over DMSO @10 μM” value in test [1] is “C (“C” refers to AUC @10 uM <4)”.

For `O=C(N[C@@H](Cc1ccccc1)C(=O)O)c1ccc2ccccc2c1OCc1ccc(F)cc1` [Example 94], the “TECC24 AUC fold over DMSO @10 μM” value in test [1] is recorded as “C (“C” refers to AUC @10 uM <4)”.

For the compound `CC(C)(C)c1ccc(COc2c(C(=O)N[C@@H](Cc3ccccc3)C(=O)O)ccc3ccccc23)cc1` [Example 96, (1-((4-(tert-butyl)benzyl)oxy)-2-naphthoyl)-L-phenylalanine], the “TECC24 AUC fold over DMSO @10 μM” value in test [1] is recorded as “C (“C” refers to AUC @10 uM <4)”.

On to `O=C(N[C@@H](Cc1ccc(C(F)(F)F)cc1)C(=O)O)c1ccc2cc(F)ccc2c1OCc1ccc(OC(F)(F)F)cc1` [Example 194, (S)-2-(6-fluoro-1-((4-(trifluoromethoxy)benzyl)oxy)-2-naphthamido)-3-(4-(trifluoromethyl)phenyl)propanoic Acid], for which, in test [1], the “TECC24 AUC fold over DMSO @10 μM” value was “C (“C” refers to AUC @10 uM <4)”.

On to `CC(C)(C)C[C@H](NC(=O)c1ccc2cc(F)ccc2c1OCc1ccc(Cl)c(Cl)c1)C(=O)O` [Example 211, (S)-2-(1-((3,4-dichlorobenzyl)oxy)-6-fluoro-2-naphthamido)-4,4-dimethylpentanoic Acid], for which, in test [1], the “TECC24 AUC fold over DMSO @10 μM” value was “C (“C” refers to AUC @10 uM <4)”.

In test [2], `CCC(C)(C)[C@H](NC(=O)c1ccc2c(F)cc(C)cc2c1OCc1ccc(C(F)(F)F)cc1)C(=O)O` [Example 272, (2S)-2-[[5-fluoro-7-methyl-1-[[4-(trifluoromethyl)phenyl]methoxy]-naphthalene-2-carbonyl]amino]-3,3-dimethyl-pentanoic Acid] gave a concentration giving a half-maximal response (EC50) of 0.2 µM and a maximum response (Emax) of 392%.

Regarding `CCC(C)(C)[C@H](NC(=O)c1ccc2c(F)cc(C)cc2c1OCc1ccc(OC(F)(F)F)cc1)C(=O)O` [Example 273, (2S)-2-[[5-fluoro-7-methyl-1-[[4-(trifluoromethoxy)phenyl]methoxy]naphthalene-2-carbonyl]amino]-3,3-dimethyl-pentanoic Acid], in test [2], the response was half-maximal at 0.1 µM (EC50) and the maximal response (Emax) stood at 339%.

In the case of `Cc1ccc2ccc(C(=O)N[C@@H](C(=O)O)C(C)(C)C)c(OCc3ccc(OC(F)(F)F)cc3)c2c1` [Example 289, (R)-3,3-dimethyl-2-(7-methyl-1-((4-(trifluoromethoxy)benzyl)oxy)-2-naphthamido)butanoic Acid], in test [2], the response was half-maximal at 1.5 µM (EC50) and the Emax was 109%.

As to `CCC(C)(C)[C@@H](NC(=O)c1ccc2ccc(C)cc2c1OCc1ccc(C(F)(F)F)cc1)C(=O)O` [Example 305, (R)-3,3-dimethyl-2-(7-methyl-1-((4-(trifluoromethyl)benzyl)oxy)-2-naphthamido)pentanoic Acid], the “TECC24 AUC fold over DMSO @10 μM” value in test [1] was “A (“A” refers to AUC @10 uM >6)”.

In test [2], `CN(C)c1ccc2c(OCc3ccc(C(F)(F)F)cc3)c(C(=O)N[C@H](C(=O)O)C(C)(C)C)ccc2c1` [compound 85, (S)-2-(6-(dimethylamino)-1-((4-(trifluoromethyl)benzyl)oxy)-2-naphthamido)-3,3-dimethylbutanoic Acid] registered a 50% effective concentration (EC50) of 1.6 µM and a maximal effect (Emax) of 53%.

For `CCCC(C)(CC)[C@H](NC(=O)c1ccc2ccc(F)cc2c1OCc1ccc(OC(F)(F)F)cc1)C(=O)O` (stereo partly drawn) [compound 290, (2S)-3-ethyl-2-(7-fluoro-1-((4-(trifluoromethoxy)benzyl)oxy)-2-naphthamido)-3-methylhexanoic Acid], in test [2], a half-maximal response (EC50) required 0.2 µM and the Emax is 225%.

In test [2], `CC(C)(C)[C@H](NC(=O)c1ccc2ccc(C(F)(F)F)cc2c1OCc1ccc(OC(F)(F)F)cc1)C(=O)O` [compound 292, (S)-3,3-dimethyl-2-(1-((4-(trifluoromethoxy)benzyl)oxy)-7-(trifluoromethyl)-2-naphthamido)butanoic Acid] returned a concentration for a half-maximal effect (EC50) of 0.2 µM and an Emax of 219%.

Regarding `CC(C)(C)[C@H](NC(=O)c1ccc2ccc(C(F)(F)F)cc2c1OCc1ccc(C(F)(F)F)cc1)C(=O)O` [compound 293, (S)-3,3-dimethyl-2-(7-(trifluoromethyl)-1-((4-(trifluoromethyl)benzyl)oxy)-2-naphthamido)butanoic Acid], in test [2], the EC50 is 0.3 µM and the Emax came out at 327%.

For the compound `CC1([C@H](NC(=O)c2ccc3ccc(C(F)(F)F)cc3c2OCc2ccc(C(F)(F)F)cc2)C(=O)O)CC1` [compound 298, (S)-2-(1-methylcyclopropyl)-2-(7-(trifluoromethyl)-1-((4-(trifluoromethyl)benzyl)oxy)-2-naphthamido)acetic Acid], in test [2], the concentration giving a half-maximal response (EC50) turned out to be 0.7 µM and the Emax came out at 153%.

Broadly, the EC50 is the midpoint of the concentration-response curve. A higher EC50 goes with weaker potency. Broadly, the Emax is the size of the effect at its maximum, as opposed to the concentration needed.
